Assay results reported in PMC5748155 (Journal of medicinal chemistry, 2017).

Tests used:
Details in all cases: relative to compound 2
[1] = system: HCV replicon D168V variant; format: cell-based, Hepatitis C virus
[2] = system: HCV replicon D168A variant; format: cell-based, Hepatitis C virus
GT1a WT NS3/4A Protease = GT1a WT NS3/4A Protease (Hepatitis C virus genotype 1a, UniProt P27958); assay: Enzyme inhibition assay, wild-type GT1a protease; format: biochemical
wild-type HCV replicon = format: cell-based, Hepatitis C virus
[3] = system: NS3/4A protease WT and variants; assay: Enzyme inhibition assays, statements across WT protease and variants; format: biochemical, Hepatitis C virus

Question: For `COc1ccc2nc(C)c(O[C@@H]3C[C@H]4C(=O)N[C@]5(C(=O)NS(=O)(=O)C6CC6)C[C@H]5/C=C\CCCCC[C@H](NC(=O)OC(C)(C)C)C(=O)N4C3)nc2c1` [Compound 18b], which “fold improvement in replicon potency against D168V variant” value [1] is on record?
Answer: Its value is ~ 2 fold.

Question: Which “fold enhanced replicon potency against D168A variant” value [2] does the source give for `CCc1nc2ccc(OC)cc2nc1O[C@@H]1C[C@H]2C(=O)N[C@]3(C(=O)NS(=O)(=O)C4CC4)C[C@H]3/C=C\CCCCC[C@H](NC(=O)OC3CCCC3)C(=O)N2C1` [Compound 22a, Cyclopentyl ((2R,6S,13aS,14aR,16aS,Z)-14a-((cyclopropylsulfonyl)carbamoyl)-2-((3-ethyl-7-methoxyquinoxalin-2-yl)oxy)-5,16-dioxo-1,2,3,5,6,7,8,9,10,11,13a,14,14a,15,16,16a-hexadecahydrocyclopropa[e]pyrrolo[1,2-a][1,4]diazacyclopentadecin-6-yl)carbamate] here?
Answer: Its value is 2 fold.

Question: And the “fold increase in biochemical potency against WT protease” value (GT1a WT NS3/4A Protease)?
Answer: The value was 2 fold.

Question: What about the “fold enhanced replicon potency against WT HCV” value (wild-type HCV replicon) of the same compound?
Answer: Its value is 2 fold.

Question: For `CCc1nc2ccccc2nc1O[C@@H]1C[C@H]2C(=O)N[C@]3(C(=O)NS(=O)(=O)C4CC4)C[C@H]3/C=C\CCCCC[C@H](NC(=O)OC(C)(C)C)C(=O)N2C1` [Compound 18g], which “fold decrease in biochemical potency” value [3] is on record?
Answer: Its value is “about 2 fold”.
